Source: patent publication US20260174875A1 (Novo Nordisk A/S, priority 2023, published 2026)
Where two headings read alike, the source gives them in different places. Numbered stars: 1 amine (or outer) side, 2 acyl side, 3 side chain; on linkers, the order of the positions; unused ones are H or OH. Square brackets hold non-standard residues; d marks the D form. Side chains are listed from the residue outwards. * marks the point of attachment. C20 diacid = O=C(O)CCCCCCCCCCCCCCCCCCC(=O)*; C18 diacid = O=C(O)CCCCCCCCCCCCCCCCC(=O)*; γGlu = O=C(O)[C@H](CCC(=O)[*:2])N[*:1]; AEEA = NCCOCCOCC(=O)O; Aib = CC(C)(N)C(=O)O

Key:
Type in all cases: cell-based
[1] = molecular target: T1, human GIP receptor (hGIPR) (Homo sapiens, UniProt P48546); experiment: GIP receptor assay, method A (CRE-luciferase reporter, BHK cells)
T1 construct: expressed in transfected cells
T1 sequence (P48546 22-466): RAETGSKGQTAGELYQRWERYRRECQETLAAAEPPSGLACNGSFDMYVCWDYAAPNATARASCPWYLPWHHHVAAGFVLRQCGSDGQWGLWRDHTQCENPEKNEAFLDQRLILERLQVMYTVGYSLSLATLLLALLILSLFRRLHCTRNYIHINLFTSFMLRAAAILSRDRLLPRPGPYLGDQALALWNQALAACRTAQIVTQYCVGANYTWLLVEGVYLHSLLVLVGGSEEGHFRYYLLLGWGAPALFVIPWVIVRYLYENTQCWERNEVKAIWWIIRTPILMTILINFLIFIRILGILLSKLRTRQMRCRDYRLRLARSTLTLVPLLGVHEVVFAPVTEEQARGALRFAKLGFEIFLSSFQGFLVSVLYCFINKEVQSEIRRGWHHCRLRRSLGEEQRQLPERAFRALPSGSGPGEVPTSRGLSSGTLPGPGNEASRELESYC
Description: To assess how the activation of the receptors is potentially influenced by the presence of human serum albumin (HSA), the in vitro assays were performed in the absence of HSA and presence of 1% (w/v) HSA. Unless stated otherwise the reference to the “GIP receptor assay as described in Example 4” throughout the specification shall refer to the described herein assay procedure method A (hGIPR assay) in the absence of HSA.
Activation of the human GIP receptor leads to increased intra-cellular concentrations of cyclic AMP (cAMP) and the consequent transcription activation from promoters containing multiple copies of the cAMP response element (CRE). It is thus possible to measure GIP receptor activity using a CRE-luciferase reporter gene introduced into Baby Hamster Kidney (BHK) cells co-expressing the human GIP receptor.
Cells at about 80-90% confluency were washed once with PBS (Gibco 14190-094) and detached from the cell flasks with Versene (Gibco, 15040-066). After centrifugation, the cells were counted, resuspended and diluted to approximately 1.5-3.0×10^6 (1.5E+6 to 3.0E+6) cells/mL in Recovery Cell Culture Freezing Medium (Gibco, 12648-010) and stored at −180° C. in suitable aliquots until use.
(§1) The assay buffer consisted of DMEM without phenol red (Gibco, 11880-028) supplemented with 1× GlutaMAX (Gibco, 35050-038), 10 mM HEPES (Gibco, 15630-056), 1% (w/v) ovalbumin (Sigma, A5503) and 0.1% (v/v) Pluronic F-68 (Gibco, 24040-032) either with HSA or without HSA (Sigma, A9511).
On the day before the assay hGIPR BHK Cre-Luc cells were thawed and plated out in 96 well Culture Plates (PerkinElmer/Revvity, 6005680) at 5.0×10^3 (5.0E+3) cells/well in growth medium as described above. The plates were then incubated for 21-23 hours at 37° C. with 5% CO2. On the day of the assay GLP-1-/GIP-/amylin-receptor tri-agonists or reference compounds were diluted in assay buffer using a 7-point, 10-fold titration plus a blank (absence of compound). Each compound was diluted and tested in duplicates in each experiment. In the plates containing the cells the growth medium was removed, and cells were washed twice with 100 μL PBS (Gibco 14190-094). 50 μL of the test compound dilutions were added to the plates containing cells preceded by 50 μL assay buffer with or without 2% (w/v) HSA (Sigma, A9511). The cell plates were incubated for 3 hours in a 5% CO2 incubator at 37° C. The plates were then transferred to room temperature followed by addition of 100 μL steadylite Plus™ (PerkinElmer/Revvity, 6066759). The plates were sealed and shaken for 30 minutes at room temperature while protected from light. Finally, luminescence (as an indicator of receptor activation) was measured on a Mithras reader (Berthold Technologies, DE). The EC50-values [pM] were calculated by non-linear curve fitting applying a four-parameter logistic model (Hill slope=“shared value for all datasets”) using GraphPad Prism (GraphPad Software, Boston, MA, USA).

[2] = molecular target: T2, human amylin receptor (hAMYR3) (Homo sapiens, UniProt O60896+P30988); experiment: Amylin receptor assay, method A (CRE-luciferase reporter, BHK cells)
T2 construct: host or cells: BHK cells (Hollex-1 line expressing hCTR(a) and CRE-Luc), further transfected with human RAMP3
T2 sequence (P30988 25-474): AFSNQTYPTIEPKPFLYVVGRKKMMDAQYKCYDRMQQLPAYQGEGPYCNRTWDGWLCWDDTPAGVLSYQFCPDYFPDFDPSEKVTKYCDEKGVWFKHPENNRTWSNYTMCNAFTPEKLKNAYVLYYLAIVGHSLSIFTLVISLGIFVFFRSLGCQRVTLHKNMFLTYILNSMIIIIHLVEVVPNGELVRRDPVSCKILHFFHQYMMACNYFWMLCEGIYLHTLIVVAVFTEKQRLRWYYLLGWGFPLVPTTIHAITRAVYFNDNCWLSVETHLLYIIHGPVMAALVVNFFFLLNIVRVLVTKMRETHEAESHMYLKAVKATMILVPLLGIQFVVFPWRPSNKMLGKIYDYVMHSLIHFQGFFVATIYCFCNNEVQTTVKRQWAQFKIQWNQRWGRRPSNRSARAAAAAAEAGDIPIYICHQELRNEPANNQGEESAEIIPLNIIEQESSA
T2 sequence (O60896 24-148): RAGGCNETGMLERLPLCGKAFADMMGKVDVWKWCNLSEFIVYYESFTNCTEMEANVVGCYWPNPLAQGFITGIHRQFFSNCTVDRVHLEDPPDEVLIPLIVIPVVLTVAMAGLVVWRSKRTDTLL
Description: (§2) To assess how the activation of the receptors is potentially influenced by the presence of human serum albumin (HSA), the in vitro assays were performed in the absence of HSA and presence of 1% (w/v) HSA.
It is thus possible to measure hAMYR3 activity using a CRE-luciferase reporter gene introduced into Baby Hamster Kidney (BHK) cells co-expressing the hAMYR3.
The cell line was further transfected with human receptor modifying protein 3 (RAMP3) using standard methods.
After centrifugation, the cell pellet was resuspended and diluted to approximately 2.5-4.0×10^6 (2.5E+6 to 4.0E+6) cells/mL in Recovery™ Cell Culture Freezing Medium (Gibco, 12648-010). Cells were aliquoted and stored at −180° C. until use.
as §1, with “15630-056) and” for “15630-056),”, “either with or without” for “and”, “24040-032) and” for “24040-032)”, “with” for “with HSA”
The plate was incubated over night at 37° C. in 5% CO2. […] Luminescence was detected on a luminescence plate reader e.g., a Synergy 2 (BioTek).

[3] = molecular target: T3, human GLP-1 receptor (hGLP-1R) (Homo sapiens, UniProt P43220); experiment: GLP-1 receptor assay, method A (CRE-luciferase reporter, BHK cells)
T3 construct: expressed in transfected cells
T3 sequence (P43220 24-463): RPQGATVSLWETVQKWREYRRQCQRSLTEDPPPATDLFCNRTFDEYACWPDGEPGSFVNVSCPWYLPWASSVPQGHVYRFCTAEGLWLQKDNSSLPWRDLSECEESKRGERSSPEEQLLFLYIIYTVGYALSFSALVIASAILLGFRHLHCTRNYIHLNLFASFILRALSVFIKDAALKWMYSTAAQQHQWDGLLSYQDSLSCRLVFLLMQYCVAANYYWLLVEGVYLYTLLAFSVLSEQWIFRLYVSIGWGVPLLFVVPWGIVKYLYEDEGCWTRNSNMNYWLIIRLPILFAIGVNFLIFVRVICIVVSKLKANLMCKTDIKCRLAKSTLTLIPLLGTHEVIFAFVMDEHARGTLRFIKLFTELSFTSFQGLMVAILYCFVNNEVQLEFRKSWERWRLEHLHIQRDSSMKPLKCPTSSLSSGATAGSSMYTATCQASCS
Description: as §2
Cells at approximately 80-90% confluence were washed once in PBS (Gibco 14190-094) and loosened from the cell flasks with Versene (Gibco, 15040-033). […] Cells were aliquoted and stored at −180° C. until use.
as §1
Frozen stocks of hGLP-1R BHK CRE-Luc cells were thawed in a 37° C. water bath, washed once in PBS (Gibco 14190-094) and diluted to 1.5×10^6 (1.5E+6) cells/mL in assay buffer with or without 2% (w/v) HSA (Sigma, A9511). […] The assay plates were incubated for 3 hours at 37° C. in 5% CO2, left at room temperature for 5 minutes after which 100 μL steadylite Plus™ (PerkinElmer/Revvity, 6066759) was added to each well. Plates were sealed and incubated at room temperature with gentle shaking for 30 minutes while protected from light. Luminescence was detected on a luminescence plate reader e.g., a Synergy 2 (BioTek).

[4] = hGIPR Potency, 1% HSA, EC50, method A, in the presence of 1% HSA
[5] = method A, absence of HSA, read-out: hGIPR Potency, no HSA, EC50
[6] = hAMYR3 Potency, 1% HSA, EC50, method A, in the presence of 1% HSA
[7] = method A, absence of HSA, read-out: hAMYR3 Potency, no HSA, EC50
[8] = hGLP-1R Potency, 1% HSA, EC50, method A, in the presence of 1% HSA
[9] = method A, absence of HSA, read-out: hGLP-1R Potency, no HSA, EC50
[10] = hGIPR Potency, no HSA, EC50, method A, absence of HSA
[11] = hAMYR3 Potency, no HSA, EC50, method A, absence of HSA
[12] = hGLP-1R Potency, no HSA, EC50, method A, absence of HSA

Substance	EC50 [1, 4] [pM]	EC50 [1, 5] [pM]	EC50 [2, 6] [pM]	EC50 [2, 7] [pM]	EC50 [3, 8] [pM]	EC50 [3, 9] [pM]	EC50 [1, 10] [pM]	EC50 [2, 11] [pM]	EC50 [3, 12] [pM]
H[Aib]HGTFTSDYSILLEEQAAREFIEWLLAGGPSGGEASHLSTAQTQRLSAELHK([AEEA-AEEA-γGlu-C18 diacid])LATLPRTETGSGSP-NH2 [Compound 75]	11.9	2.65	110	2.49	25.2	3.66	–	–	–
H[Aib]HGTFTSDYSILLEEQAAREFIEWLLAGGPSK([AEEA-AEEA-γGlu-C18 diacid])GALAQTLGTNEASELSTAALGRLSAELHRLATLPRTETGSGSP-NH2 [Compound 44]	–	6.3	–	3.8	–	3.68	–	–	–
H[Aib]HGTFTSDYSILLEEQAAREFIEWLLAGGPSK([AEEA-AEEA-γGlu-C18 diacid])GALAQTLGTNEASHLSTAQTQRLSAELHELATLPRTETGSGSP-NH2 [Compound 45]	132	2.63	62.4	4.69	112	4.78	–	–	–
H[Aib]HGTFTSDYSILLEEQAAREFIEWLLAGGPSK([AEEA-AEEA-γGlu-C18 diacid])GAPPPSGGGASELSTAALGRLSAELHRLATLPRTETGSGSP-NH2 [Compound 86]	122	5.11	58.4	3.31	130	6.69	–	–	–
H[Aib]HGTFTSDYSILLEEQAAREFIEWLLAGGPSK([AEEA-AEEA-γGlu-C18 diacid])GAPPPSGGGEASELSTAALGRLSAELHRLATLPRTETGSGSP-NH2 [Compound 30]	–	6.8	–	2.28	–	6.37	–	–	–
H[Aib]HGTFTSDYSILLEEQAAREFIEWLLAGGPSK([AEEA-AEEA-γGlu-C18 diacid])GEASELSTAALGRLSAELHRLATLPRTETGSGSP-NH2 [Compound 25]	–	4.27	–	3.22	–	2.87	–	–	–
H[Aib]HGTFTSDYSILLEEQAAREFIEWLLAGGPSK([AEEA-AEEA-γGlu-C18 diacid])GEASQLSTAALGRLSAELHHLATLPRTETGSGSP-NH2 [Compound 66]	–	2.39	–	2.32	–	5.25	–	–	–
H[Aib]HGTFTSDYSILLEEQAAREFIEWLLAGGPSK([AEEA-AEEA-γGlu-C18 diacid])GEASQLSTAALGRLSAELHRLADLPRTETGSGSP-NH2 [Compound 43]	186	–	56.5	–	41.5	–	4.38	3.13	4.31
H[Aib]HGTFTSDYSILLEEQAAREFIEWLLAGGPSK([γGlu-C18 diacid])GAPPPSGGGEASHLSTAQTARLSAELHRLADLPRTETGSGSP-NH2 [Compound 112]	321	–	269	–	336	–	2.42	3.65	4.37
H[Aib]HGTFTSDYSILLEEQAAREFIEWLLAGGPSRGAPPPSGGGEASELSTAALGRLSAELHK([AEEA-AEEA-γGlu-C18 diacid])LATLPRTETGSGSP-NH2 [Compound 70]	19.1	5.89	59.4	4.53	18.4	3.48	–	–	–
H[Aib]HGTFTSDYSILLEEQAAREFIEWLLAGGPSRGAPPPSGGGEASHLSTQTQGRLSAELHK([AEEA-AEEA-γGlu-C18 diacid])LATLPRTETGSGSP-NH2 [Compound 71]	9.28	2.77	274	8.66	18.4	3.34	–	–	–
H[Aib]HGTFTSDYSILLEEQAAREFIEWLLAGGPSSGAGQAPGQAPGASHLSTAQTARLSAELHK([AEEA-AEEA-γGlu-C18 diacid])LATLPRTETGSGSP-NH2 [Compound 103]	13.3	3.14	73.6	2.42	33.1	5.24	–	–	–
H[Aib]HGTFTSDYSILLEEQAAREFIEWLLAGGPSSGAGQAPGQAPGASHLSTAQTARLSAELHK([AEEA-AEEA-γGlu-C20 diacid])LATLPRTETGSGSP-NH2 [Compound 104]	17.3	3.57	293	1.49	19.1	4.16	–	–	–
H[Aib]HGTFTSDYSILLEEQAAREFIEWLLAGGPSSGALAQTLAQTLASHLSTAQTQRLSAELHK([AEEA-AEEA-γGlu-C18 diacid])LATLPRTETGSGSP-NH2 [Compound 51]	61.9	8.37	57.1	6.19	32.2	7.68	–	–	–
H[Aib]HGTFTSDYSILLEEQAAREFIEWLLAGGPSSGALQAPGQAPGASHLSTAQTARLSAELHRLATLPK([AEEA-AEEA-γGlu-C18 diacid])TETGSGSP-NH2 [Compound 107]	8.76	3.87	93.1	3.07	13.9	4.1	–	–	–
H[Aib]HGTFTSDYSILLEEQAAREFIEWLLAGGPSSGALQAPGQAPGASHLSTAQTARLSAELHRLK([AEEA-AEEA-γGlu-C18 diacid])TLPRTETGSGSP-NH2 [Compound 106]	10.3	4.8	31.2	2.07	11.1	3.33	–	–	–
